In paper PMC6154605, “Multi-Anti-Parasitic Activity of Arylidene Ketones and Thiazolidene Hydrazines against Trypanosoma cruzi and Leishmania spp” (Molecules : A Journal of Synthetic Chemistry and Natural …, 2017):
Like-named read-outs stand apart in the source and are kept apart here. Marks after values point to notes of the source that are not given here.

What was measured:
cruzipain = cruzipain (Trypanosoma cruzi, UniProt P25779); details: at 100 µM; cited from earlier work
[1] = biological target: T1, LmTIM (triosephosphate isomerase from Leishmania mexicana) (Leishmania mexicana, UniProt P48499); experiment: Inhibition of triosephosphate isomerase; assay type: biochemical; details: for IC50: read-out: IC50 ± SD LmTIM; for inhibition at 100 µM: read-out: Percentage of Inhibition LmTIM
T1 construct: made in house; host or cells: Escherichia coli
T1 sequence (P48499 whole entry): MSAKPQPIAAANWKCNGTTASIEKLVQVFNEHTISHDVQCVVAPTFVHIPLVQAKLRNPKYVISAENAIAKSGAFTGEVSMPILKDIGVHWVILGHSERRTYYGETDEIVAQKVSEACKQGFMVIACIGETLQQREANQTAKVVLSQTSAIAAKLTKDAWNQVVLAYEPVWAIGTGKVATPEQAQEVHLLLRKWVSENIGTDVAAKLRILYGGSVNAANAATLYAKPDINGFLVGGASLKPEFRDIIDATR
Method: Compounds were dissolved in DMSO. […] The experiments were performed in triplicate.

[2] = test system: T. cruzi epimastigotes, Tulahuen 2 strain (genotype TcVI); details: cited from earlier work; for SI J774.1/ T. cruzi: ratio IC50 mammalian cell / IC50 parasite (epimastigotes); for IC50: read-out: IC50 ± SD Epimastigotes T. cruzi
[3] = test system: L. infantum promastigotes; experiment: Leishmanicidal activity on promastigotes, resazurin; assay type: cell-based, Leishmania infantum; details: for IC50: 48 h, read-out: IC50 ± SD Promastigotes L. infantum; for SI NCTC/ L. infantum: ratio IC50 mammalian cell / IC50 parasite (promastigotes)
Description: (§1) We initially selected compounds previously reported to have anti-T. cruzi activity from our chemical library to evaluate their leishmanicidal activity. […]. To evaluate their activity in Leishmania spp., we performed a phenotypic screening using the promastigote form of L. infantum (MHOM/FR/91/LEM-2259) and L. braziliensis ([…]) (Table 1A for the thiazolidenehydrazine derivate and Table 1B for the arylideneketones family).
(§2) A culture of L. braziliensis (MHOM/BR/75/M2904) and L. infantum (MHOM/FR/91/LEM2259V) was obtained from the Facultad de Farmacia (Universidad Complutense, Madrid, Spain). The maintenance of the strains, the form of cultivation and the isolation of the shape of the promastigote were performed following the procedures described by Roldos et al.. The promastigotes were grown at 22 °C in Schneider’s Drosophila medium supplemented with 20% FBS. The assay was performed using a modification of a previous method. Promastigotes (2 × 10^6 parasites/well) were cultivated in 96-well plastic plates. Compounds were dissolved in dimethylsulfoxide (DMSO). Different dilutions of the compounds with a final volume up to 200 µL were added. After 48 h at 26 °C, 20 µL of a 2 mM resazurin solution were added, and the oxidation-reduction was quantified at 570 and 600 nm. The solution of resazurin was prepared at 2.5 mM in phosphate buffered solution (PBS), pH 7.4, and filtered through 0.22-µm membranes prior to use. All tests were carried out in triplicate. Resazurin sodium salt was obtained from Sigma-Aldrich (St. Louis, MO, USA) and stored at 4 °C protected from light. The efficacy of each compound was estimated by calculating the IC50 values. Each antiproliferative experiment was done in duplicate, and each concentration was tested in triplicate.

[4] = biological target: triosephosphate isomerase from T. cruzi (TcTIM) (Trypanosoma cruzi, UniProt P52270); design: made in house; host or cells: Escherichia coli; details: cited from earlier work; for Percentage of Inhibition TcTIM: at 100 µM; for IC50: read-out: IC50 ± SD TcTIM
triosephosphate isomerase from T. cruzi (TcTIM), sequence (P52270 whole entry): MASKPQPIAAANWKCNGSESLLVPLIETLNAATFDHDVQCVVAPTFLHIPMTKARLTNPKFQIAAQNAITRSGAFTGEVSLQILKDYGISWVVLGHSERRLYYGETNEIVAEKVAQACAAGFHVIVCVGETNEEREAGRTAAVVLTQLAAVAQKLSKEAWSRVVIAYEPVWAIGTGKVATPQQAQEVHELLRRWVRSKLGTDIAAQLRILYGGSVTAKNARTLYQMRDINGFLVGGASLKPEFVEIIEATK

[5] = test system: L. braziliensis promastigotes; experiment: Leishmanicidal activity on promastigotes, resazurin; assay type: cell-based, Leishmania braziliensis; details: for IC50: 48 h, read-out: IC50 ± SD Promastigotes L. braziliensis; for SI NCTC/ L. braziliensis: ratio IC50 mammalian cell / IC50 parasite (promastigotes)
Description: as §1, §2

[6] = test system: J774.1 murine macrophages; details: J774.1; read-out: IC50 ± SD Murine Macrophages; cited from earlier work
NCTC929 fibroblasts = experiment: Nonspecific cytotoxicity on fibroblasts, resazurin; assay type: cell-based; details: NCTC-929, 24 h; read-out: IC50 ± SD Fibroblast NCTC929
Method: (§3) To establish the selectivity of the compounds against the parasites, nonspecific cytotoxicity against mammalian cells, using J774.1 murine macrophages and fibroblast NCTC929, was studied for the most relevant derivatives. The selectivity indexes were calculated as the ratio between cytotoxicity for mammalian cells and the anti-parasitic activity (Table 2).
NCTC-Clone 929 were grown in minimal essential medium (Sigma) supplemented with 10% heat-inactivated FBS, penicillin G (100 U/mL) and streptomycin (100 µg/mL). Cell cultures were maintained at 37 °C in a humidified 5% CO2 atmosphere. The procedure for cell viability measurement was evaluated with resazurin by a colorimetric method. The cells were plated in 96 microtiter plates at 3.00 × 10^4 cells/well in 100 µL growth medium. The cells were grown overnight at 37 °C, 5% CO2. Thereafter, the medium was removed, and the compounds were added to 200 µL of medium for 24 h. After incubation, 20 µL of a 2 mM resazurin solution were added to each well. The plates were incubated for 3 h to allow optimal oxidation-reduction. The reduction of resazurin was determined by dual wavelength absorbance measurement at 490 and 595 nm. The background was subtracted. Each concentration was assayed three times. Medium and drug controls were used in each test as blanks.

[7] = test system: T. cruzi epimastigotes, Tulahuen 2 strain (genotype TcVI); experiment: In vitro anti-T. cruzi activity, growth inhibition of epimastigotes; assay type: cell-based, Trypanosoma cruzi; details: for IC50: Trypanosoma cruzi, TULAHUEN, Tulahuen 2 strain, read-out: IC50 ± SD Epimastigotes T. cruzi; for SI J774.1/ T. cruzi: ratio IC50 mammalian cell / IC50 parasite (epimastigotes)
Method: For the in vitro anti-T. cruzi activity, we used epimastigotes of the Tulahuen 2 strain (genotype TcVI) grown in an axenic milieu (BHI-Tryptose). Cells from a 5–7-day-old culture were inoculated in fresh culture milieu to give an initial concentration of 1.00 × 10^6 cells/mL. The absorbance at 600 nm of the cells in culture was measured every day. At Day 5, the milieu was inoculated with different quantities of the compounds from a stock solution in DMSO (DMSO concentration in the culture milieu never exceeded 0.4%). The control was made in the presence of 0.4% DMSO and in the absence of compounds. Each concentration of compound was evaluated in duplicate. At Day 5, the absorbance of the culture was measured and related to the control. […] Each antiproliferative experiment was done in duplicate, and each concentration was tested in triplicate.

zebrafish embryos = experiment: Zebrafish embryo toxicity test (LD50)
Method: […] Only embryos that were clearly undamaged after 60 min of observation were kept and subsequently used. Dechorionated embryos were further manipulated using flame-rounded tip glass Pasteur pipettes. […] In all cases, the embryos were incubated in system water with 1% DMSO (negative control) and the compound at different doses between 8 and 96 hpf. The treatment solution was changed daily. […] At selected time points, namely 24, 48, 72 and 96 hpf, embryotoxicity (= mortality) and morphological characteristics of the embryos were evaluated using a Nikon SMZ800 stereomicroscope. The embryos were evaluated for the presence and morphological development (as appropriate) of somites, tail detachment, eyes, heart beat and blood circulation. All individuals were evaluated at all time points.

[8] = test system: J774.1 murine macrophages; experiment: Nonspecific cytotoxicity on macrophages, MTT; assay type: cell-based; details: J774.1, 48 h, read-out: IC50 ± SD Murine Macrophages
Method: as §3
J774.1 murine macrophage cells (ATCC, USA) were grown in DMEM culture milieu containing 4 mM L-glutamine and supplemented with 10% FCS. The cells were seeded in a 96-well plate (5.00 × 10^4 cells in 200 µL culture medium) and incubated at 37 °C in a 5% CO2 atmosphere for 48 h, to allow cell adhesion prior to drug testing. Afterwards, cells were exposed for 48 h to the compounds (25–400 μM) or the vehicle for control (0.4% DMSO), and additional controls (cells in medium) were used in each test. Cell viability was then assessed by measuring the mitochondria-dependent reduction of MTT (3-(4,5-dimethylthiazol-2-yl)-2,5-diphenyltetrazolium bromide) to formazan. For this purpose, MTT in sterile PBS (0.2% glucose), pH 7.4, was added to the macrophages to achieve a final concentration of 0.1 mg/mL, and the cells were incubated at 37 °C for 3 h. After removing the medium, formazan crystals were dissolved in 180 μL of DMSO and 20 μL of MTT buffer (0.1 M glycine, 0.1 M NaCl, 0.5 mM EDTA, pH 10.5), and the absorbance at 560 nm was measured. The IC50 was defined as the drug concentration at which 50% of the cells were viable, relative to the control (no drug added), and was determined by analysis using OriginLab8.5® sigmoidal regression (% of viable cells vs. the logarithm of the compound concentration). Tests were performed in triplicate.

cruzipain, sequence (P25779 123-467): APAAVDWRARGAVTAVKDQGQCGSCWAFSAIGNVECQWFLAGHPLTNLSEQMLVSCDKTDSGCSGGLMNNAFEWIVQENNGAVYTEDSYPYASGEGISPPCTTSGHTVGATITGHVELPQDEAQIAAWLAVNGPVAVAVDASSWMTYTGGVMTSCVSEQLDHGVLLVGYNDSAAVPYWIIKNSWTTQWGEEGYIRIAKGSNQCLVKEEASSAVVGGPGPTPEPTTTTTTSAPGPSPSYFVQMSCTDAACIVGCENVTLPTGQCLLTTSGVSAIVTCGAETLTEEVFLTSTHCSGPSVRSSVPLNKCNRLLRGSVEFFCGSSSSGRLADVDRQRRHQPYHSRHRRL

Compound | Percentage of Inhibition Cruzipain (cruzipain) | IC50 [1] [µM] | inhibition at 100 µM [1] [%] | SI J774.1/ T. cruzi [2] | IC50 [2] [µM] | IC50 ([3]; Leishmania infantum) [µM] | SI NCTC/ L. infantum [3] | Percentage of Inhibition TcTIM [4] | IC50 [4] [µM] | IC50 ([5]; Leishmania braziliensis) [µM] | SI NCTC/ L. braziliensis [5] | IC50 [6] [µM] | IC50 (NCTC929 fibroblasts) [µM] | IC50 [7] [µM] | SI J774.1/ T. cruzi [7] | IC50 ([8]; Mus musculus) [µM] | also measured
CC(/C=C/C(=O)/C=C/C(C)=C/c1ccco1)=C\c1ccco1 [EA155] | 0/- ^d | < 25 | 100 | 4 ^c | 8.2 ± 2 | 6 ± 1 | 91 | 100 | 3.3 | 16 ± 2 | 34 | 33 ± 8 | 543 ± 15 | – | – | – | –
O=C1/C(=C/C=C/c2ccco2)CCC/C1=C\C=C\c1ccco1 [HIT2] | 80 | < 25 | 100 | 17 ^c | 0.6 ± 0.2 | 13 ± 7 | 12 | 100 | 0.086 | 7 ± 1 | 23 | 10 ± 2 | 160 ± 9 | – | – | – | –
O=C(Cn1ccnc1[N+](=O)[O-])NCc1ccccc1 [Benznidazole, reference compound] | – | – | – | – | – | – | – | – | – | – | – | – | – | 7 ± 1 | 57 | 400 ± 4 | LD50 without chorion (zebrafish embryos; dechorionated zebrafish embryos, 72 h incubation): > 1000 µM; LD50 with chorion (zebrafish embryos; zebrafish embryos with chorion): > 1000 µM
CCCCCCCCCCCCCCCCOP(=O)([O-])OCC[N+](C)(C)C [Miltefosine, reference compound] | – | – | – | – | – | 0.9 ± 0.2 | 56 | – | – | 0.9 ± 0.2 | – | – | – | 8 ± 1 | 6 | 50 ± 7 | –
Glucantime [reference compound] | – | – | – | – | – | – | 0.5 | – | – | – | 1 | – | – | – | – | – | IC50 [3]: 26 ± 9 µM; IC50 [5]: 18 ± 2 µM; IC50 [8]: 15 ± 1 µM
